Source: US20130252930A1 (BIOMARIN PHARMACEUTICAL INC., priority 2010, published 2013)
Read-outs that look alike come from different tables or passages of the source.

Molecular target: T1, CYP17 (human testicular microsome) (Homo sapiens, UniProt P05093)
T1 construct: using microsomal fraction from human testis (Celsis Cat #S00110) as the enzyme source; tissue Celsis S00110; host or cells: human testis microsomal fraction
T1 sequence (P05093 1-508): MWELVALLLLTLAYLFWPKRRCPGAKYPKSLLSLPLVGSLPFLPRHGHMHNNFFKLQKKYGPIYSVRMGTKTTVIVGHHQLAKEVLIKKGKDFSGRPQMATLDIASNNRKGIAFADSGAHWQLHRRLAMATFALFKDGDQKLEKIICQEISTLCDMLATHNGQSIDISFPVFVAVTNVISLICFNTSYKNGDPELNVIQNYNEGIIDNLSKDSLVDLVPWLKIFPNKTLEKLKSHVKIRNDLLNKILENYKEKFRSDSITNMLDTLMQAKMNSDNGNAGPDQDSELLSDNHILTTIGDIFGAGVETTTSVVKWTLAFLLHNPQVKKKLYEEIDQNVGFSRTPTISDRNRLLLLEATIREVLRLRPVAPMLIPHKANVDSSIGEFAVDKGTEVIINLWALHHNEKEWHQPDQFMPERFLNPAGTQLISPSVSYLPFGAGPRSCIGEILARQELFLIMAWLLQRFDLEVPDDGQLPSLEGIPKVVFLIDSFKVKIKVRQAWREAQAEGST
Assay: CYP17 enzymatic assay (% inhibition at 1 nM) (Biological Example 12)
Assay type: biochemical

[1] = compound at 1 nM, read-out: Biological Example No. 12: CYP17 enzymatic assay % inhibition at 1 nM
[2] = test compound at 1 nM, read-out: CYP17 enzymatic assay percent inhibition at 1 nM (Biological Example No. 12)
[3] = compound at 1 nM, read-out: CYP17 enzymatic assay % inhibition at 1 nM (Biological Example No. 12)

Description: The assays were performed in 96-well plates. Typical assays were carried out in total 100 μL volume that included test compounds at 1 nM concentration, 1× reaction buffer, 0.5 mM NADPH, 1 μM 17α-hydroxypregnenolone, and 2.5 μL of human testicular microsome (Celsis. Cat #S00110). Reaction without test compound served as a positive control. Reactions were allowed to incubate at 37° C. for 90 min with gentle shaking. The reaction was stopped by directly applying the enzymatic reaction mixture to ELISA plate for evaluation of DHEA concentration according to manufacturer's protocol (IBL America). A standard curve (OD450 vs. DHEA concentration) was generated using purified DHEA. […] Percent inhibition (inhibition %) of the compound was calculated using normalized DHEA concentration based on following formula: 100−([DHEA] of compound/[DHEA] of positive control*100).

Compound: C[C@H]1C2CCC3C(CC[C@]4(C)C(c5cncc(C(F)F)c5)=CCC34)[C@@]2(C)CC[C@@H]1O (stereo partly drawn) [Compound 307, (3S,4S,10R,13S)-17-(5-(difluoromethyl)pyridin-3-yl)-4,10,13-trimethyl-2,3,4,5,6,7,8,9,10,11,12,13,14,15-tetradecahydro-1H-cyclopenta[a]phenanthren-3-ol]
- inhibition at 0.001 µM [1]: 10 to 50%

Compound: C[C@H]1C2CCC3C(CC[C@]4(C)C(c5cncc(C(F)F)c5)=CCC34)[C@@]2(C)CC[C@H]1O (stereo partly drawn) [Compound 308, (3R,4S,10R,13S)-17-(5-(difluoromethyl)pyridin-3-yl)-4,10,13-trimethyl-2,3,4,5,6,7,8,9,10,11,12,13,14,15-tetradecahydro-1H-cyclopenta[a]phenanthren-3-ol]
- inhibition at 0.001 µM [1]: < 10%

Compound: CC1=C2CCC3C(CC[C@]4(C)C(c5cccnc5)=CCC34)[C@@]2(C)CC/C1=N\O (stereo partly drawn) [Compound 364, (10R,13S,E)-4,10,13-trimethyl-17-(pyridin-3-yl)-6,7,8,9,10,11,12,13,14,15-decahydro-1H-cyclopenta[a]phenanthren-3(2H)-one oxime]
- inhibition at 0.001 µM [1]: 10 to 50%

Compound: C[C@]12CC(O)CC1CCC1C2CC[C@]2(C)C(c3cncc(Cl)c3)=CCC12 (stereo partly drawn) [Compound 397, (3aS,5aS)-6-(5-chloropyridin-3-yl)-3a,5a-dimethyl-1,2,3,3a,3b,4,5,5a,8,8a,8b,9,10,10a-tetradecahydrodicyclopenta[a,f]naphthalen-2-ol]
- inhibition at 0.001 µM [1]: 10 to 50%

Compound: CC1(O)CC2CC[C@@H]3[C@H](CC[C@]4(C)C(c5cccnc5)=CC[C@@H]34)[C@@]2(C)C1 (stereo partly drawn) [Compound 400, (3aS,5aS)-2,3a,5a-trimethyl-6-(pyridin-3-yl)-1,2,3,3a,3b,4,5,5a,8,8a,8b,9,10,10a-tetradecahydrodicyclopenta[a,f]naphthalen-2-ol]
- inhibition at 0.001 µM [2]: 10 to 50%

Compound: C[C@]12CC(F)(F)CC1CCC1C2CC[C@]2(C)C(c3cccnc3)=CCC12 (stereo partly drawn) [Compound 407, 3-((8aS,10aS)-7,7-difluoro-8a,10a-dimethyl-3,3a,3b,4,5,5a,6,7,8,8a,8b,9,10,10a-tetradecahydrodicyclopenta[a,f]naphthalen-1-yl)pyridine]
- inhibition at 0.001 µM [2]: 10 to 50%

Compound: C[C@]12CC[C@H]3[C@@H](CCC45CC4C(O)CC[C@]35C)[C@@H]1CC=C2c1cncc(F)c1 (stereo partly drawn) [Compound 412, (4aR,6aS)-7-(5-fluoropyridin-3-yl)-4a,6a-dimethyl-1a,2,3,4,4a,4b,5,6,6a,9,9a,9b,10,11-tetradecahydro-1H-cyclopenta[a]cyclopropa[j]phenanthren-2-ol]
- inhibition at 0.001 µM [1]: 10 to 50%

Compound: CC(=O)NC1CC[C@@]2(C)C(CCC3C2CC[C@]2(C)C(c4cccnc4)=CCC32)C1C (stereo partly drawn) [Compound 413, N-((10R,13S)-4,10,13-trimethyl-17-(pyridin-3-yl)-2,3,4,5,6,7,8,9,10,11,12,13,14,15-tetradecahydro-1H-cyclopenta[a]phenanthren-3-yl)acetamide]
- inhibition at 0.001 µM [1]: < 10%

Compound: CCNC(=O)NC1CC[C@@]2(C)C(CCC3C2CC[C@]2(C)C(c4cccnc4)=CCC32)C1C (stereo partly drawn) [Compound 414, 1-ethyl-3-((10R,13S)-4,10,13-trimethyl-17-(pyridin-3-yl)-2,3,4,5,6,7,8,9,10,11,12,13,14,15-tetradecahydro-1H-cyclopenta[a]phenanthren-3-yl)urea]
- inhibition at 0.001 µM [1]: < 10%

Compound: CC1C[C@@]2(C)C(CC[C@@H]3[C@@H]2CC[C@]2(C)C(c4cccnc4)=CC[C@@H]32)C(C)C1=O (stereo partly drawn) [Compound 415, (10R,13S)-2,4,10,13-tetramethyl-17-(pyridin-3-yl)-4,5,6,7,8,9,10,11,12,13,14,15-dodecahydro-1H-cyclopenta[a]phenanthren-3(2H)-one]
- inhibition at 0.001 µM [1]: < 10%

Compound: CC1C[C@@]2(C)C(CC[C@@H]3[C@@H]2CC[C@]2(C)C(c4cccnc4)=CC[C@@H]32)C(C)C1O (stereo partly drawn) [Compound 416, (10R,13S)-2,4,10,13-tetramethyl-17-(pyridin-3-yl)-2,3,4,5,6,7,8,9,10,11,12,13,14,15-tetradecahydro-1H-cyclopenta[a]phenanthren-3-ol]
- inhibition at 0.001 µM [1]: 10 to 50%

Compound: CC1(O)C=C2CC[C@@H]3[C@H](CC[C@]4(C)C(c5cccnc5)=CC[C@@H]34)[C@@]2(C)CC1 (stereo partly drawn) [Compound 422, (10R,13S)-3,10,13-trimethyl-17-(pyridin-3-yl)-2,3,6,7,8,9,10,11,12,13,14,15-dodecahydro-1H-cyclopenta[a]phenanthren-3-ol]
- inhibition at 0.001 µM [1]: 10 to 50%

Compound: CC1C[C@@H]2[C@H](CC[C@]3(C)C(c4cccnc4)=CC[C@@H]23)[C@@]2(C)CCC(C)(O)C=C12 (stereo partly drawn) [Compound 423, (10R,13S)-3,6,10,13-tetramethyl-17-(pyridin-3-yl)-2,3,6,7,8,9,10,11,12,13,14,15-dodecahydro-1H-cyclopenta[a]phenanthren-3-ol]
- inhibition at 0.001 µM [1]: 10 to 50%

Compound: CC1CC2C(CC[C@]3(C)C(c4cccnc4)=CCC23)[C@@]2(C)CC[C@@](C)(O)CC12 (stereo partly drawn) [Compound 424, (3R,10S,13S)-3,6,10,13-tetramethyl-17-(pyridin-3-yl)-2,3,4,5,6,7,8,9,10,11,12,13,14,15-tetradecahydro-1H-cyclopenta[a]phenanthren-3-ol]
- inhibition at 0.001 µM [1]: 10 to 50%

Compound: CC1CC2C(CC[C@]3(C)C(c4cccnc4)=CCC23)[C@@]2(C)CC[C@](C)(O)CC12 (stereo partly drawn) [Compound 425, (3S,10S,13S)-3,6,10,13-tetramethyl-17-(pyridin-3-yl)-2,3,4,5,6,7,8,9,10,11,12,13,14,15-tetradecahydro-1H-cyclopenta[a]phenanthren-3-ol]
- inhibition at 0.001 µM [1]: 10 to 50%

Compound: CN1C(=O)CC[C@@]2(C)C1=CCC1C2CC[C@]2(C)C(c3cncc(C(F)F)c3)=CCC12 (stereo partly drawn) [Compound 429, (4aR,6aS)-7-(5-(difluoromethyl)pyridin-3-yl)-1,4a,6a-trimethyl-4,4a,4b,5,6,6a,9,9a,9b,10-decahydro-1H-indeno[5,4-f]quinolin-2(3H)-one]
- inhibition at 0.001 µM [1]: < 10%

Compound: CN1C(=O)CC[C@@]2(C)C1=CC[C@@H]1[C@@H]2CC[C@]2(C)C(c3cnccc3F)=CC[C@@H]12 [Compound 430, (4aR,6aS)-7-(4-fluoropyridin-3-yl)-1,4a,6a-trimethyl-4,4a,4b,5,6,6a,9,9a,9b,10-decahydro-1H-indeno[5,4-f]quinolin-2(3H)-one]
- inhibition at 0.001 µM [1]: 10 to 50%

Compound: C[C@]12CCC3C(CC4OC45C[C@@H](O)CC[C@]35C)C1=CC=C2c1cccnc1 (stereo partly drawn) [Compound 439, (3S,9aS,11bR)-9a,11b-dimethyl-9-(pyridin-3-yl)-1,2,3,4,5a,6,6a,9a,10,11,11a,11b-dodecahydrocyclopenta[1,2]phenanthro[8a,9-b]oxiren-3-ol]
- inhibition at 0.001 µM [3]: > 50%

Compound: C[C@]12CCC(O)(CCCO)CC1CC[C@@H]1[C@@H]2CC[C@]2(C)C(c3cccnc3)=CC[C@@H]12 (stereo partly drawn) [Compound 440, (10S,13S)-3-(3-hydroxypropyl)-10,13-dimethyl-17-(pyridin-3-yl)-2,3,4,5,6,7,8,9,10,11,12,13,14,15-tetradecahydro-1H-cyclopenta[a]phenanthren-3-ol]
- inhibition at 0.001 µM [1]: 10 to 50%

Compound: COC1CC[C@@]2(C)C(=CCC3C2CC[C@]2(C)C(c4cccnc4)=CCC32)C1 (stereo partly drawn) [Compound 453, 3-((10R,13S)-3-methoxy-10,13-dimethyl-2,3,4,7,8,9,10,11,12,13,14,15-dodecahydro-1H-cyclopenta[a]phenanthren-17-yl)pyridine]
- inhibition at 0.001 µM [3]: < 10%
